Calls of active or inactive are those of the source. The rule behind the calls is not given here. A value given as a limit tells only on which side of the number the result lay.

The record followed here is PubChem BioAssay AID1431 (PCMD, 2008).

For this assay, the target named is Kallikrein-5 (Homo sapiens) (UniProt Q9Y337). The experiment in a line: human KLK5 inhibitor potency, dose response, biochemical, 1536-well (AID 1431). As to conditions: recombinant KLK5 enzyme activity, fluorogenic substrate.
Kallikrein-5 (Homo sapiens), sequence (Q9Y337 67-293 limits assumed): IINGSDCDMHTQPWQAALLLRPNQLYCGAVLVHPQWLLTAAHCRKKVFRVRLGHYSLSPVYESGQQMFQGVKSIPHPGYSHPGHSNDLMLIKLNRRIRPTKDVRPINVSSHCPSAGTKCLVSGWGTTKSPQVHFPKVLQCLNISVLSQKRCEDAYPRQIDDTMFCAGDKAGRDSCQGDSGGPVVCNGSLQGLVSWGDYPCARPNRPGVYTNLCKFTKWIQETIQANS
`CC1=C(C(=O)N2CCCCC2)C(c2cccs2)C2=C(CCCC2=O)N1` (stereo unspecified): the IC50 was > 50 µM (inactive).
For `CCOC(=O)C1=C(CC)Nc2ccccc2N=C1NC(=O)CCN1C(=O)C2CCCCC2C1=O` (stereo unspecified) the value was > 50 µM (inactive).
For `CCOC(=O)c1ccc(N=C(c2ccccc2)c2c(O)n(C)c(=O)n(C)c2=O)cc1` the value was > 50 µM (inactive); for `Cc1cc(N2C(=O)CC(Cc3ccc(Cl)cc3)C2=O)no1` (stereo unspecified), > 50 µM (inactive).
For `N#Cc1c(N)nc2c3c(sc(=N)c2c1N)NC(=O)CC3c1c(F)cccc1Cl` (stereo unspecified) the value was > 50 µM (inactive); for `O=c1c(/C=N/O)c(Nc2ccccc2)nc2ccccn12`, > 50 µM (inactive).
For the molecule `COc1ccc(C2C(C(C)=O)=C(O)C(=O)N2c2nccs2)cc1OC` (stereo unspecified), the IC50 is 26 µM.
To `Cc1c(-c2cccs2)[n+](=O)c2c(n1[O-])CCC2` belongs > 50 µM (inactive); to `COc1ccc(N2C(=O)CC(Nc3cccc([N+](=O)[O-])c3)C2=O)cc1` (stereo unspecified), > 50 µM (inactive).
For `O=C1CC(c2ccccc2)CC(O)=C1C=NCCN1CCN(C(=S)Nc2cccc(Cl)c2)CC1` (stereo unspecified) the value was > 50 µM (inactive); for `COC(/C=C/Nc1ccc(Br)cc1)=C(C#N)C#N`, > 50 µM (inactive); for `CC1CC(C)(C)n2c(O)c(N=NC(N)=S)c3cccc1c32` (stereo unspecified), > 50 µM (inactive).
For `CC1(C)CC(=O)CC(=NCC(=O)O)C1` the value was > 50 µM (inactive); for `COC(=O)c1[nH]c(C)c(/C(O)=C2\C(=O)C(=O)N(CCN(C)C)C2c2cccc(OC)c2OC)c1C` (stereo unspecified), > 50 µM (inactive); for `COc1ccc(CN2C(=O)c3cccnc3C2Nc2cc(Cl)ccc2OC)cc1` (stereo unspecified), 7.23 µM.
For `COc1cccc(N2CCN(C3CC(=O)N(c4ccc(F)c(Cl)c4)C3=O)CC2)c1` (stereo unspecified), the IC50 is > 50 µM (inactive).
For `Oc1cccc(NC(=S)N=Nc2c(O)[nH]c3ccccc23)c1` the value was > 50 µM (inactive); for `COc1ccc(OC)c(/C=N/Nc2cc(C)nc(N3CCOCC3)n2)c1`, > 50 µM (inactive); for `COc1ccc2c(c1)C(c1ccc(N3CCOCC3)cc1)=NNC(c1cccnc1)=N2`, > 50 µM (inactive).
Turning to `CCN(CC)C(=O)c1sc(NC(=O)Cc2ccccc2)c(C#N)c1C`, the IC50 is > 50 µM (inactive).
On to `COc1ccc(-c2[nH]nc3c2C(c2ccsc2)C(C#N)=C(N)O3)cc1` (stereo unspecified), for which the IC50 is > 50 µM (inactive).
To `N#C/C(=N\O)c1nc2ccccc2s1` belongs > 50 µM (inactive).
For `COc1ccc2cc(C3C(C#N)=C(N)OC(C)=C3C(C)=O)c(Cl)nc2c1` (stereo unspecified) the value was > 50 µM (inactive).
Take `COc1ccc(Oc2ccccc2/C=N/O)cc1`: the IC50 is > 50 µM (inactive).
Take `Cc1cc(C)n(CC2CC(=O)N(c3ccc(Cl)c(Cl)c3)C2=O)n1` (stereo unspecified): the IC50 is > 50 µM (inactive).
Consider `COC(=O)c1sc(N2C(=O)C(O)=C(C(=O)c3ccc(C)o3)C2c2ccc(F)cc2)nc1C` (stereo unspecified), for which the IC50 was > 50 µM (inactive).
To `O=C1c2ccccc2C(=O)N1/N=C/c1ccc(O)c(O)c1O` belongs > 50 µM (inactive).
To `O=C1CC(Sc2ccc(Cl)cc2)C(=O)N1c1ccc2c(c1)OCCO2` (stereo unspecified) belongs > 50 µM (inactive); to `N#CC1=C(N)NC(SCc2ccccc2)=C(C#N)C12CCCC2`, > 50 µM (inactive); to `O=C1C(C=NCCCN2CCOCC2)=C(O)c2ccccc21`, > 50 µM (inactive).
In the case of `CC(=O)C1=C(C)NC(C)=C(C(C)=O)C1c1cccs1`, the IC50 was > 50 µM (inactive).
For `Cc1cc(N/N=C/c2ccc(O)cc2)nc(NS(=O)(=O)c2ccccc2)n1` the value was > 50 µM (inactive).
To `Cc1ccc(NC2c3ncccc3C(=O)N2c2ccccc2C)cc1C` (stereo unspecified) belongs 5.53 µM; to `Oc1ccc2ccccc2c1C=NC12CN3CCN(CN(C3)C1)C2`, > 50 µM (inactive); to `Cc1ccc(Cn2c(O)c(N=NC(=S)Nc3ccccc3F)c3cc(S(=O)(=O)N4CCOCC4)ccc32)cc1`, > 50 µM (inactive).
For `COc1ccc(C2C(C(=O)Nc3ccccc3OC)=C(C)Nc3ncnn32)cc1` (stereo unspecified) the value was > 50 µM (inactive).
With `CCOc1cc(/C=N/Nc2nc(Nc3ccccc3)nc(N3CCCCC3)n2)ccc1OCC(=O)O`, the IC50 is > 50 µM (inactive).
To `CC(C)n1c(=O)c(C=Nc2ccc(Br)cc2)c(O)n(Cc2ccco2)c1=O` belongs > 50 µM (inactive); to `CCCC(C)C1C(C#N)=C(N)Oc2c1c(=O)oc1ccccc21` (stereo unspecified), > 50 µM (inactive).
For `Cc1ccccc1NC(=O)Cn1c(O)c(N=NC(=O)c2ccccc2O)c2ccccc21` the value was > 50 µM (inactive).
For `CC1(C)CC(=O)C(C=Nc2ccccc2Sc2ccccc2)=C(O)C1` the value was > 50 µM (inactive); for `CCC(=O)N1c2ccccc2NC2=C(C(=O)CCC2)C1c1ccc(N(C)C)cc1` (stereo unspecified), > 50 µM (inactive).
In the case of `CCC(=O)N1CCN(CCN=CC2=C(O)CC(C)(C)CC2=O)CC1`, the IC50 was > 50 µM (inactive).
For `CC(=O)c1ccc(N2C(=O)C3C(C2=O)C(C(=O)c2ccc(Cl)cc2)N2CCCC32)cc1` (stereo unspecified) the value was > 50 µM (inactive); for `COc1cccc(/C(O)=C2/C(=O)C(=O)N(CCCN3CCOCC3)C2c2ccncc2)c1` (stereo unspecified), 46.3 µM; for `CC(C)(CO)N=Cc1c(O)[nH]c2ccccc12`, > 50 µM (inactive).
On to `Cc1ccc(-c2[nH]nc3c2C(c2ccoc2)C(C#N)=C(N)O3)cc1C` (stereo unspecified), for which the IC50 was > 50 µM (inactive).
For `Cc1cccc(NC2SC(=O)N(c3ccccc3)C2=O)c1` (stereo unspecified) the value was > 50 µM (inactive); for `O=C1CC(SCc2nc3ccccc3[nH]2)C(=O)N1c1ccc(F)cc1` (stereo unspecified), > 50 µM (inactive).
To `Cc1cc2c(C)nc(N/N=C/c3ccc([N+](=O)[O-])cc3)nc2o1` belongs > 50 µM (inactive); to `O=C(O)c1cc(/C=N\O)ccc1OCc1ccccc1`, > 50 µM (inactive).
Take `COc1ccc2c(c1)C(c1ccc([N+](=O)[O-])cc1)=NNC(c1ccco1)=N2`: the IC50 is > 50 µM (inactive).
To `O=C(Nc1ccccc1)c1cccc(N2C(=O)CCC2=O)c1` belongs > 50 µM (inactive).
To `O=C1CC(Nc2ccccc2)C(=O)N1c1ccc(N2CCOCC2)cc1` (stereo unspecified) belongs > 50 µM (inactive); to `CCOC(=O)C1(C)C=C(Nc2cccc(OC)c2)C(=O)N1c1ccccc1` (stereo unspecified), > 50 µM (inactive); to `COc1cccc(N2C(=O)CC(NNc3nc4ccccc4s3)C2=O)c1` (stereo unspecified), > 50 µM (inactive).
For `O=C(N/N=C/c1cc([N+](=O)[O-])ccc1O)c1cccc2cc[nH]c12` the value was > 50 µM (inactive); for `O=c1[nH]c(=O)n(Cc2ccco2)c(O)c1C=NCc1ccco1`, > 50 µM (inactive).
Regarding `Cc1cc(/C(O)=C2\C(=O)C(=O)N(CCN(C)C)C2c2ccncc2)ccc1OCc1ccccc1` (stereo unspecified), the IC50 is > 50 µM (inactive).
For `CCOC(=O)C1=C(N)OC2=C(C(=O)CCC2)C12C(=O)N(CC(N)=O)c1ccccc12` (stereo unspecified) the value was > 50 µM (inactive); for `COc1ccc(N2C(N)=C(C#N)C(c3cccnc3)C3=C2CC(C)(C)CC3=O)cc1` (stereo unspecified), > 50 µM (inactive).
To `CCOC(=O)C1CCCN(C2CC(=O)N(c3ccc(C)cc3)C2=O)C1` (stereo unspecified) belongs > 50 µM (inactive); to `O=C(N/N=C\c1cccc([N+](=O)[O-])c1O)C1COc2ccccc2O1` (stereo unspecified), > 50 µM (inactive).
For `CC1=C(C(N)=O)C(c2ccccn2)n2nc(-c3ccccc3Cl)nc2N1` (stereo unspecified) the value was > 50 µM (inactive); for `COC(=O)c1cc(N2C(=O)C3C(C2=O)C2(C)C=CC3(C)O2)ccc1Cl` (stereo unspecified), > 50 µM (inactive).
`CCC/S(C)=N/S(=O)(=O)c1ccc(C)cc1` (stereo unspecified): the IC50 is > 50 µM (inactive).

For orientation: IC50 means the concentration that inhibits the measured activity by half.
